Test results from patent US20020013314A1, “3,4-dihydro-2H-benzo[1,4]oxazine inhibitors of factor Xa” (priority 2000, published 2002).

What was measured:
factor Xa = factor Xa (Homo sapiens, UniProt P00742); test: factor Xa amidolytic assay (chromogenic substrate S-2765)
Description: (§1) In the assays for thrombin, prothrombinase and factor Xa, a synthetic chromogenic substrate is added to a solution containing test compound and the enzyme of interest and the residual catalytic activity of that enzyme is determined spectrophotometrically. The IC50 of a compound is determined from the substrate turnover. […] The factor Xa and thrombin assays are performed at room temperature, in 0.02 M Tris·HCl buffer, pH 7.5, containing 0.15 M NaCl.

prothrombinase complex = prothrombinase complex (Homo sapiens, UniProt P00742); test: prothrombinase inhibition assay (plasma free system, Chromozym TH); format: biochemical
Description: The prothrombinase inhibition assay is performed in a plasma free system with modifications to the method described by Sinha, U. et al., Thromb. […] Specifically, the activity of the prothrombinase complex is determined by measuring the time course of thrombin generation using the p-nitroanilide substrate Chromozym TH. […] Aliquots from the complex-inhibitor mixture are added to prothrombin (1 nM) and Chromozym TH (0.1 mM). […] Eight different concentrations of inhibitor are assayed in duplicate. A standard curve of thrombin generation by an equivalent amount of untreated complex is used for determination of percent inhibition.

thrombin = thrombin (Homo sapiens, UniProt P00734); test: thrombin amidolytic assay (Chromozym TH)
Description: as §1

[1] = Table 3, probe of regiochemistry

Sequence of factor Xa (P00742 41-179 limits assumed): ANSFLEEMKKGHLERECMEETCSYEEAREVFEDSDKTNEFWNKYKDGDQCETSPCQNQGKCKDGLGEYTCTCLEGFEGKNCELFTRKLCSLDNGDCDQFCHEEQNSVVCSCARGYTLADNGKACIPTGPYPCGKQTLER
Sequence of factor Xa (P00742 235-488 limits assumed): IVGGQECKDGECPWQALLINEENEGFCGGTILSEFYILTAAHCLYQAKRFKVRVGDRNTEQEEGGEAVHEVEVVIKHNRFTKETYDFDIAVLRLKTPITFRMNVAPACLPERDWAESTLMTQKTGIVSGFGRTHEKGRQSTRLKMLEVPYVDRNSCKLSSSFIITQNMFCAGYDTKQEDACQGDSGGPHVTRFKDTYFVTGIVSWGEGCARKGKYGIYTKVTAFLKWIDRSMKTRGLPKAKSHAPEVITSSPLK
Sequence of prothrombinase complex (P00742 41-179 limits assumed): as the sequence (P00742 41-179 limits assumed) above
Sequence of prothrombinase complex (P00742 235-488 limits assumed): as the sequence (P00742 235-488 limits assumed) above
Sequence of prothrombinase complex (P12259 29-737 partner limits assumed): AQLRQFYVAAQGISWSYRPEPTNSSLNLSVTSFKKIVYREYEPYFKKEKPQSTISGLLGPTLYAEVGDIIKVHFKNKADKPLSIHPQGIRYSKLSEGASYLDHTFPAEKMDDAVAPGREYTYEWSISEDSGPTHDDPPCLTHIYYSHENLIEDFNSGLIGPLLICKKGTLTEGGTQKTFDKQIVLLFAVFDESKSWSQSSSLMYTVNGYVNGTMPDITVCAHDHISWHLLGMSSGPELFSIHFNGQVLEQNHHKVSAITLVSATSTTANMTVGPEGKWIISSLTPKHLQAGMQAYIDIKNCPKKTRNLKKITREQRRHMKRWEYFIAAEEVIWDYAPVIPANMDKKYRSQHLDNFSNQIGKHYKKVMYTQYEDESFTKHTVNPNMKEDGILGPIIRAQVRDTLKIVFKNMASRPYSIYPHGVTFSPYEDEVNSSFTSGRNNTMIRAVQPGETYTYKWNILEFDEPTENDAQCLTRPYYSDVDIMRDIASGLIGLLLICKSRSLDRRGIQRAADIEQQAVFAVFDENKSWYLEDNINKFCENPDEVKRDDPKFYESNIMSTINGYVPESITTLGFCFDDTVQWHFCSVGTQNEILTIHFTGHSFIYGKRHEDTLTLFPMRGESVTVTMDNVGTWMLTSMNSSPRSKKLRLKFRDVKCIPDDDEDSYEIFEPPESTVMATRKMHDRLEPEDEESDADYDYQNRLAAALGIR
Sequence of prothrombinase complex (P12259 1574-2224 partner limits assumed): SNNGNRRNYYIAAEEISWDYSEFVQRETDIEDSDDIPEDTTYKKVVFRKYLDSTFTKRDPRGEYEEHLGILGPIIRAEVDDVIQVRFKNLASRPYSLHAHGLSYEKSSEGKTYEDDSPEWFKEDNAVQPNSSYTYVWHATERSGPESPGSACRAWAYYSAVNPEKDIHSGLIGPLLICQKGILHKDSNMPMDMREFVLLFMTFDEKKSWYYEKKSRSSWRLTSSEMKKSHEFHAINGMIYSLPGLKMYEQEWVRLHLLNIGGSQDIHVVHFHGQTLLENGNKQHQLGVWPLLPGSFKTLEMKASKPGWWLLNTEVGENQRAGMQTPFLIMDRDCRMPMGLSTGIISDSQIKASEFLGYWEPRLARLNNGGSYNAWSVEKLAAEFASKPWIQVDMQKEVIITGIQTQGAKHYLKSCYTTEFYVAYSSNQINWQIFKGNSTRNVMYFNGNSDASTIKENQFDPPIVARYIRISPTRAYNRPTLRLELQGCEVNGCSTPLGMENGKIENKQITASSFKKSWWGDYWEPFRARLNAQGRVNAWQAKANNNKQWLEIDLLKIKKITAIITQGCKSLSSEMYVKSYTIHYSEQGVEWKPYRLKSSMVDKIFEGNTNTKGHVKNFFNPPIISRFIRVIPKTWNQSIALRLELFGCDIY

IC50 (factor Xa) [µM]	IC50 (thrombin) [µM]	IC50 (prothrombinase complex; Table 5) [nM]	IC50 (prothrombinase complex; [1]) [nM]	IC50 (prothrombinase complex; Table 6, monoamidine) [nM]	SMILES	IC50 (prothrombinase complex; Table 4) [nM]
0.002	–	–	–	–	CC(=N)N1CCC(Oc2ccc3c(c2)OCC(=O)N3Cc2cc3ccc(C(=N)N)cc3n2C)CC1 [Cmpd 28]	6.6
0.191	81	–	352	–	CC(=N)N1CCC(Oc2ccc3c(c2)N(Cc2ccc4ccc(C(=N)N)cc4c2)C(=O)CO3)CC1 [Cmpd 26]	–
19.5	109	364000	–	–	N=C(N)c1ccc2ccc(CN3C(=O)COc4cc(NS(=O)(=O)c5cccc6ncccc56)ccc43)cc2c1 [Cmpd 34]	–
> 11	> 11	–	–	> 11000	Cc1cc(CN2C(=O)COc3cc(-c4ccccc4S(N)(=O)=O)ccc32)n(-c2cccc(C(=N)N)c2)n1 [Cmpd 38]	–
10.1	204	67500	–	–	N=C(N)c1ccc(C(=O)Nc2ccc3c(c2)OCC(=O)N3Cc2ccc3ccc(C(=N)N)cc3c2)cc1 [Cmpd 31]	–
0.0376	11	–	214	–	CC(=N)N1CCC(Oc2ccc3c(c2)OCC(=O)N3Cc2cccc(-c3cccc(C(=N)N)c3)c2)CC1 [Cmpd 23]	–
0.89	8.7	–	–	3000	N=C(N)c1cccc(-c2cccc(CN3C(=O)COc4ccc(-c5ccccc5S(N)(=O)=O)cc43)c2)c1 [Cmpd 37]	–
–	334	–	–	–	CC(=N)N1CCC(Oc2ccc3c(c2)OCC(=O)N3Cc2ccc3ccc(C(=N)N)cc3c2)CC1 [Cmpd 24]	–

Further lines, the compound ahead of its results:

SMILES	IC50 (factor Xa) [µM]	IC50 (thrombin) [µM]	IC50 (prothrombinase complex; Table 5) [nM]	IC50 (prothrombinase complex; [1]) [nM]	IC50 (prothrombinase complex; Table 6, monoamidine) [nM]	IC50 (prothrombinase complex; Table 4) [nM]
N=C(N)c1ccc2ccc(CN3C(=O)COc4cc(NS(=O)(=O)c5ccccc5)ccc43)cc2c1 [Cmpd 32]	21.9	34.5	55200	–	–	–
N=C(N)c1ccc2ccc(CN3C(=O)COc4cc(NS(=O)(=O)c5ccc6cc(Br)ccc6c5)ccc43)cc2c1 [Cmpd 35]	268	83.7	98000	–	–	–
COc1ccc(S(=O)(=O)Nc2ccc3c(c2)OCC(=O)N3Cc2ccc3ccc(C(=N)N)cc3c2)cc1 [Cmpd 33]	38.2	34.9	81000	–	–	–
N=C(N)c1ccc2ccc(CN3C(=O)COc4ccc(-c5ccccc5S(N)(=O)=O)cc43)cc2c1 [Cmpd 36]	0.068	26.7	–	–	2000	–
CC(=N)N1CCC(Oc2ccc3c(c2)N(Cc2cccc(-c4cccc(C(=N)N)c4)c2)C(=O)CO3)CC1 [Cmpd 25]	0.344	5.37	–	934	–	–
CC(=N)N1CCC(Oc2ccc3c(c2)OCC(=O)N3Cc2cc(-c3cccc(C(=N)N)c3)no2)CC1 [Cmpd 27]	0.0524	250	–	–	–	159
